Experimental data: PMC4358806 (European Journal of Medicinal Chemistry, 2013)
Read-outs that look alike come from different tables or passages of the source.

Assays:
HCV replicon (type 1b) [1] = settings: read-out: EC50 HCV replicon, Huh 7 cells; cited from earlier work
Huh 7 cells = settings: cited from earlier work
[2] = tested on: HEL and CrFK cell cultures; assay: Cytotoxicity; format: cell-based
Feline herpes virus = assay: organism not typed; format: cell-based; settings: read-out: EC50 Feline herpes virus
HCV replicon (type 1b) [3] = assay: HCV replicon assay; format: cell-based; settings: L-alanine vs D-alanine derivative
[4] = tested on: human and feline herpes viruses; assay: organism not typed; format: cell-based; settings: read-out: EC50 against human and feline herpes viruses
tumor cell lines = assay: Cytostatic activity, ranges over several tumor cell lines; format: cell-based
HIV-1 (X4LAI.04) = assay: microbe, parasite or virus in culture; format: cell-based
carboxypeptidase Y = biological target: T1, carboxypeptidase Y (Saccharomyces cerevisiae, UniProt P00729); assay: Carboxypeptidase Y-mediated cleavage monitored by 31P NMR; format: in vitro ADME; settings: d6-acetone and Trizma buffer pH 7.6, room temperature
T1 sequence (P00729 112-532): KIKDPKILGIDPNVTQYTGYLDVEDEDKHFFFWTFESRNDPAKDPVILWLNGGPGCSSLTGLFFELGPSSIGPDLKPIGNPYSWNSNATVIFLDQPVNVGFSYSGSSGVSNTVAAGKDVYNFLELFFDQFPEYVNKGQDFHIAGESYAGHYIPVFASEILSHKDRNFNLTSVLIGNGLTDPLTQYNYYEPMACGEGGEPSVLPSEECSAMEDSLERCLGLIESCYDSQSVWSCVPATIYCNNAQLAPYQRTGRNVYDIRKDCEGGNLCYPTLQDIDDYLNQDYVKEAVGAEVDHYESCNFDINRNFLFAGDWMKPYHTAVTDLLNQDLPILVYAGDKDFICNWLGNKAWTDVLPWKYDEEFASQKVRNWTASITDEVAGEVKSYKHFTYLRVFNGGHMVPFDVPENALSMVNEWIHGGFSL

HIV-1 and HIV-2 = format: cell-based
[5] = Cytotoxicity in HCV replicon assay, Huh 7 cells; format: cell-based; settings: human, Huh 7 cells (HCV replicon type 1b)
HIV-1(IIIB) = format: cell-based
HIV-2(ROD) = format: cell-based
[6] = tested on: L1210 (mouse lymphocytic leukemia cells); format: cell-based; settings: read-out: IC50 (50% inhibitory concentration), proliferation
[7] = tested on: CEM (human T-lymphocyte cells); format: cell-based; settings: read-out: IC50 (50% inhibitory concentration), proliferation
[8] = tested on: HeLa (human cervical carcinoma cells); format: cell-based; settings: read-out: IC50 (50% inhibitory concentration), proliferation
HeLa/TK− cells = format: cell-based, human; settings: read-out: IC50 (50% inhibitory concentration), proliferation
[9] = tested on: Herpes simplex virus 1(KOS); format: cell-based, herpes simplex virus type 1; settings: read-out: EC50 Herpes simplex virus 1(KOS)
[10] = tested on: Herpes simplex virus 2 (G); format: cell-based, herpes simplex virus type 2; settings: read-out: EC50 Herpes simplex virus 2 (G)
[11] = tested on: Herpes simplex virus 1TK−(KOS)ACVr; format: cell-based, herpes simplex virus type 1; settings: read-out: EC50 Herpes simplex virus 1TK−(KOS)ACVr
[12] = read-out: IC50, range over cell lines
[13] = read-out: IC50, range over all tested tumor cell lines

For [N-]=[N+]=N[C@]1(CO)O[C@@H](n2ccc(N)nc2=O)[C@H](O)[C@@H]1O [Compound 8, 4′-azidocytidine], the EC50 (HCV replicon (type 1b) [1]) is given as 7.13 µM and the CC50 (Huh 7 cells) is given as > 100 µM.

In the case of C[C@H](NP(=O)(N[C@@H](C)C(=O)OCc1ccccc1)OC[C@H]1O[C@@H](n2cnc(C(N)=O)c2N)[C@H](O)[C@@H]1O)C(=O)OCc1ccccc1 [Compound 38, acadesine-5′-O-bis(benzoxy-L-alaninyl)-phosphate], the “MCC (cytotoxicity)” value [2] is reported as >100 µM and the EC50 (Feline herpes virus) is reported as > 100 µM.

In the case of COC(=O)[C@H](C)NP(=O)(N[C@@H](C)C(=O)OC)OC[C@H]1O[C@@H](n2cnc(C(N)=O)c2N)[C@H](O)[C@@H]1O [Compound 39, acadesine-5′-O-bis(methoxy-L-alaninyl)-phosphate], the “MCC (cytotoxicity)” value [2] is reported as >100 µM and the EC50 (Feline herpes virus) is reported as > 100 µM.

With CCOc1nc(N)nc2c1ncn2[C@@H]1O[C@H](COP(=O)(N[C@@H](C)C(=O)OCC(C)(C)C)N[C@@H](C)C(=O)OCC(C)(C)C)[C@@H](O)[C@@]1(C)F [Compound 14, (2R,3R,4R,5R)-5-(2-amino-6-ethoxy-9H-purin-9-yl)-4-fluoro-2-(hydroxymethyl)-4-methyltetrahydrofuran-3-ol-5′-O-bis-(2,2-dimethylpropoxy-L-alaninyl)-phosphate] the “improved anti-HCV activity compared to 15” value (HCV replicon (type 1b) [3]) was 4 fold.

In the case of NC(=O)c1ncn([C@@H]2O[C@H](CO)[C@@H](O)[C@H]2O)c1N [Compound 13, acadesine, reference compound], the “MCC (cytotoxicity)” value [2] is reported as >100 µM, the EC50 (Feline herpes virus) is reported as > 100 µM and the EC50 [4] is reported as > 100 µM.

With C[C@H](NP(=O)(N[C@@H](C)C(=O)OCc1ccccc1)OC[C@@H]1C=C[C@H](n2cnc3c(NC4CC4)nc(N)nc32)C1)C(=O)OCc1ccccc1 [Compound 34, abacavir-5′-O-bis(benzoxy-L-alaninyl)-phosphate] the IC50 (tumor cell lines; [12]) was 19 to 54 µM.

In the case of C[C@H](NP(=O)(N[C@@H](C)C(=O)OCc1ccccc1)OCCOCn1cnc2c(=O)[nH]c(N)nc21)C(=O)OCc1ccccc1 [Compound 32, acyclovir-5′-O-bis[(benzoxy-L-alaninyl)]-phosphate], the “boost in activity compared to ACV, HIV-1” value (HIV-1 (X4LAI.04)) is reported as > 60 fold, the EC50 (HIV-1 (X4LAI.04); Human immunodeficiency virus 1, MT4, 72 h, read-out: EC50 HIV-1) is reported as 2 to 4 µM and the “MCC (cytotoxicity)” value [2] is reported as >100 µM. The EC50 (Feline herpes virus) was > 100 µM and the “time to full conversion into metabolite” value (carboxypeptidase Y) was 7.5 h.

In the case of Cc1cn([C@H]2C[C@H](N=[N+]=[N-])[C@@H](COP(=O)(N[C@@H](C)C(=O)OCc3ccccc3)N[C@@H](C)C(=O)OCc3ccccc3)O2)c(=O)[nH]c1=O [Compound 20, 3′-azido-3′-deoxythymidine-5′-O-bis(benzoxy-L-alaninyl)-phosphate], the “anti-HIV activity compared to the parent” value (HIV-1 and HIV-2) is reported as “equipotent to the parent”.

In the case of C[C@H](NP(=O)(N[C@@H](C)C(=O)OCC(C)(C)C)OC[C@@H]1C=C[C@H](n2cnc3c(NC4CC4)nc(N)nc32)C1)C(=O)OCC(C)(C)C [Compound 35, abacavir-5′-O-bis-(2,2-dimethylpropoxy-L-alaninyl)-phosphate], the IC50 (tumor cell lines; [12]) is reported as 19 to 54 µM.

For [N-]=[N+]=N[C@]1(CO)O[C@@H](n2ccc(=O)[nH]c2=O)[C@H](O)[C@@H]1O [Compound 7, 4′-azidouridine], the EC50 (HCV replicon (type 1b) [1]) is listed as > 100 µM and the CC50 (Huh 7 cells) is listed as > 100 µM.

With C[C@H](NP(=O)(N[C@@H](C)C(=O)OCc1ccccc1)OC[C@H]1O[C@@H](n2cnc(C(N)=O)n2)[C@H](O)[C@@H]1O)C(=O)OCc1ccccc1 [Compound 30, ribavirin-5′-O-bis(benzoxy-L-alaninyl)-phoshate] the CC50 [5] was > 100 µM.

In the case of C[C@H](NP(=O)(N[C@@H](C)C(=O)OCc1ccccc1)OC[C@H]1O[C@@H](n2ccc(N)nc2=O)CS1)C(=O)OCc1ccccc1 [Compound 25, 3TC-5′-O-bis(benzoxy-L-alaninyl)-phosphate], the IC50 (tumor cell lines; [13]) is reported as 38 to 116 µM.

In the case of C[C@H](NP(=O)(N[C@@H](C)C(=O)OCC(C)(C)C)OC[C@@H]1CC[C@H](n2cnc3c(N)ncnc32)O1)C(=O)OCC(C)(C)C [Compound 19, ddA-5′-O-bis-(2,2-dimethylpropoxy-L-alaninyl)-phosphate], the “boost of activity compared to parent nucleoside, HIV-1” value (HIV-1(IIIB)) is reported as 72 fold, the “boost of activity compared to parent nucleoside, HIV-2” value (HIV-2(ROD)) is reported as 57 fold and the IC50 (tumor cell lines; [12]) is reported as 35 to 76 µM.

For “acadesine-5′-O-bis(2,2-dimethylpentoxy-L-alaninyl)-phosphate [Compound 40]”, the IC50 [6] was > 250 µM, the IC50 [7] was > 250 µM and the IC50 [8] was > 250 µM. For the same molecule, the IC50 (HeLa/TK− cells) was > 250 µM, the “MCC (cytotoxicity)” value [2] was >100 µM and the EC50 [9] was > 100 µM. The EC50 [10] was > 100 µM, the EC50 [11] was > 100 µM and the EC50 (Feline herpes virus) was > 100 µM.

For Nc1ccn([C@@H]2CS[C@H](CO)O2)c(=O)n1 [Compound 5, lamivudine, reference compound], the IC50 (tumor cell lines; [13]) was > 250 µM.

In the case of Nc1nc2c(ncn2COCCO)c(=O)[nH]1 [Compound 10, acyclovir, reference compound], the “MCC (cytotoxicity)” value [2] is listed as >100 µM, the EC50 (Feline herpes virus) is listed as > 100 µM and the EC50 (HCV replicon (type 1b) [1]) is listed as 30 µM. The CC50 (Huh 7 cells) was > 30 µM.

In the case of C[C@H](NP(=O)(N[C@@H](C)C(=O)OCC(C)(C)C)OCCOCn1cnc2c(=O)[nH]c(N)nc21)C(=O)OCC(C)(C)C [Compound 33, acyclovir-5′-O-bis[(2,2-dimethylpropoxy-L-alaninyl)]-phosphate], the “boost in activity compared to ACV, HIV-1” value (HIV-1 (X4LAI.04)) is reported as > 60 fold, the “MCC (cytotoxicity)” value [2] is reported as >100 µM and the EC50 (Feline herpes virus) is reported as > 100 µM.

In the case of CCCCCc1ccc(-c2cc3cn([C@H]4C[C@H](O)[C@@H](COP(=O)(N[C@@H](C)C(=O)OCc5ccccc5)N[C@@H](C)C(=O)OCc5ccccc5)O4)c(=O)nc3o2)cc1 [Compound 36, 3-(2′-deoxy-β-D-ribofuranosyl)-6-(4-n-pentylphenyl)-2,3-dihydrofuro-[2,3-d]pyrimidin-2-one-5′-O-bis-(benzoxy-L-alaninyl)-phosphate], the EC50 (Feline herpes virus) is reported as > 100 µM and the EC50 [4] is reported as > 100 µM.

In the case of NC(=O)c1ncn([C@@H]2O[C@H](CO)[C@@H](O)[C@H]2O)n1 [Compound 9, ribavirin], the EC50 (HCV replicon (type 1b) [1]) is given as 87 µM and the CC50 (Huh 7 cells) is given as > 100 µM.
